From US5547971A, “Use of leflunomide for inhibiting interleukin 8” (priority 1993, dated 1996)

Columns and labels:
IL-8 = IL-8 synthesis and liberation induced by lipopolysaccharide in isolated human blood mononuclear cells (IL-8 in the supernatant, sandwich enzyme immuno test); format: cell-based; conditions: for activity at 50 µM / activity at 100 µM: Homo sapiens, control without substance set at 100%, 37° C., 1 h, lipopolysaccharide-induced, read-out: IL-8 in the supernatant % +/- standard deviation; for activity at 50 µM: concentration 0.05 mmol/l; for activity at 100 µM: concentration 0.1 mmol/l; for effect on the IL-8 level / effect on the synthesis and liberation of cytokines from human blood cells: in words; for effect on the IL-8 level: experiments in Tab. 1
Procedure: 10 ml of freshly prepared human citrate blood were carefully underlaid with 15 ml of Lymphoprep^(R) (Molter GmbH, Heidelberg) and then centrifuged at 400 ×g for 40 min. at 20° C. The cell fraction which was visible as a white ring at the phase boundary was removed with the aid of a syringe, diluted 1:1 (v/v) with PM-16 buffer (from Serva Feinbiochemica GmbH & Co. KG, Heidelberg) and then centrifuged, as above, for 10 min. […] Using a cell counter (type IT, from Coulter Diagnostics, Krefeld), the cell suspension, which is composed of about 90% lymphocytes and 10% monocytes, was adjusted to about 5 million cells/mi. Cell viability was monitored before and after the inhibition experiments using the known lactate dehydrogenase method.
The synthesis and liberation of cellular IL-8 was induced by adding a solution of 500 ng of lipopolysaccharide (Salmonella abortus equi, Sigma GmbH, Deisenhofen) in 0.01 ml of dimethyl sulfoxide/water (1:10, v/v) to 0.48 ml of the above-described cell fraction. At the same time, a solution of leflunomide or leflunomide metabolite in 0.01 ml of dimethyl sulfoxide (for the final concentration in each case, see Tab. 1) was added to the cell fraction and the mixture was left at 37° C. for 1h in a commercially available incubator. After cooling down to 0° C., the samples were centrifuged for 1 min. in a bench centrifuge and in each case 0.025 ml aliquots of the supernatant were examined for their […] content using a "sandwich" enzyme immuno test kit (from Biermann GmbH, Bad Nauheim) in accordance with the manufacturer's instructions. The control values were determined without the addition of leflunomide or its metabolites and set at 100%.

[1] = Metabolism of leflunomide in the mononuclear cell test sample (HPLC); format: in vitro ADME, human; conditions: blood mononuclear cells; under the conditions employed; human mononuclear cell fraction; read-out: half life of metabolism of leflunomide to its metabolites (converted)
mononuclear cells = assay: as above; format: in vitro ADME, human; conditions: in words; under the experimental conditions employed

SMILES: C/C(O)=C(\C#N)C(=O)Nc1ccc(C(F)(F)F)cc1 [Leflunomide metabolite, N-(4-trifluoromethylphenyl)-2-cyano-3-hydroxycrotonamide]
- activity at 50 µM (IL-8): 97%
- activity at 100 µM (IL-8): 99%
- effect on the IL-8 level (IL-8): practically no effect on the IL-8 level
- effect on the synthesis and liberation of cytokines from human blood cells (IL-8): does not exhibit this advantageous effect

SMILES: Cc1oncc1C(=O)Nc1ccc(C(F)(F)F)cc1 [Leflunomide, N-(4-trifluoromethylphenyl)-5-methylisoxazole-4-carboxamide]
- activity at 50 µM (IL-8): 83%
- activity at 100 µM (IL-8): 61 ± 11%
- effect on the IL-8 level (IL-8): IL-8 level is clearly lowered
- effect on the synthesis and liberation of cytokines from human blood cells (IL-8): strong inhibitory effect
- half-life [1]: ~10 h
- metabolism of leflunomide (mononuclear cells): no appreciable metabolism
